This note sets out measurements from patent publication US8604042B2, “Bi-aryl meta-pyrimidine inhibitors of kinases” (TargeGen, Inc., priority 2005, dated 2013).

Counter-ions that a name gives are not always drawn.

One may read the IC50 as the concentration needed to halve the response being measured.

The target in this test is T1, recombinant JAK2 (Homo sapiens, UniProt O60674).
T1 construct: purchased Upstate Cell Signaling Solutions
Kind of test: IC50 value determinations for Jak2 kinase, luminescence-based kinase assay (Kinase-Glo). In kind it is biochemical. Particulars: Table 1. For orientation: In Kinase-Glo more light means more ATP remaining.

T1 sequence (O60674 808-1132 limits assumed): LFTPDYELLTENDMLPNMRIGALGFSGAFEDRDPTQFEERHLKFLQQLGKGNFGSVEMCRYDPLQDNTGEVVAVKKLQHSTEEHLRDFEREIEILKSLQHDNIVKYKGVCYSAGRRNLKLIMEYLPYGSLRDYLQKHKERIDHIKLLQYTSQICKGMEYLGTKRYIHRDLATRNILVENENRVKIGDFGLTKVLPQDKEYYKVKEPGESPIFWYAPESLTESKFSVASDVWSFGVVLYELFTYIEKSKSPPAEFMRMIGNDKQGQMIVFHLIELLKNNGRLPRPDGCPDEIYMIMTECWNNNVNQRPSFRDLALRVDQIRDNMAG
Procedure: The IC50 values for compounds were determined using a luminescence-based kinase assay with recombinant JAK2 obtained from Upstate Cell Signaling Solutions. In white, flat bottom, 96-well plates (Nunc) parallel assays were run at room temperature at a final volume of 50 μL.
Two control reactions were also ran: one reaction containing no compound and the second containing neither inhibitor nor peptide substrate. IC50 values were derived from experimental data using the non-linear curve fitting capabilities of Prism (Version 4; GraphPad Software).

`Cc1ccc(Nc2nc(Nc3ccc(OCCN4CCCC4)cc3)ncc2C)cc1` [N2-(4-(2-(pyrrolidin-1-yl)ethoxy)phenyl)-5-methyl-N4-p-tolylpyrimidine-2,4-diamine Hydrochloride]: the half-maximal inhibitory concentration (IC50) was 35.7 nM.

Take `Cc1cnc(Nc2ccc(OCCN3CCCC3)cc2)nc1Nc1cccc2[nH]ccc12` [N2-(4-(2-(pyrrolidin-1-yl)ethoxy)phenyl)-N4-(1H-indol-4-yl)-5-methylpyrimidine-2,4-diamine Hydrochloride]: the IC50 was 19.2 nM.

Regarding `Cc1cnc(Nc2ccc(OCCN3CCCC3)cc2)nc1Nc1cccc(C(F)(F)F)c1` [N2-(4-(2-(pyrrolidin-1-yl)ethoxy)phenyl)-N4-(3-(trifluoromethyl)phenyl)-5-methylpyrimidine-2,4-diamine], the half-inhibitory concentration (IC50) was determined as 17.6 nM.

Turning to `Cc1cnc(Nc2ccc(OCCN3CCCC3)cc2)nc1Nc1cccc(C(C)(C)C)c1` [N2-(4-(2-(pyrrolidin-1-yl)ethoxy)phenyl)-N4-(3-tert-butylphenyl)-5-methylpyrimidine-2,4-diamine Hydrochloride], the concentration for half-maximal inhibition (IC50) was determined as 6.71 nM.

Regarding `Cc1cnc(Nc2nc(Nc3ccc(OCCN4CCCC4)cc3)ncc2C)nc1Nc1cccc(C(C)(C)C)c1` [N2-(4-(2-(pyrrolidin-1-yl)ethoxy)phenyl)-N4-(4-(3-tert-butylphenylamino)-5-methylpyrimidin-2-yl)-5-methylpyrimidine-2,4-diamine Hydrochloride], the half-maximal inhibitory concentration (IC50) was 153 nM.

For the compound `Cc1cnc(Nc2ccc(OCCN3CCCC3)cc2)nc1Nc1ccc(C(F)(F)F)cc1` [N2-(4-(2-(pyrrolidin-1-yl)ethoxy)phenyl)-N4-(4-(trifluoromethyl)phenyl)-5-methylpyrimidine-2,4-diamine hydrochloride], the 50% inhibitory concentration (IC50) stood at 39.8 nM.

Take `Cc1cnc(Nc2ccc(OCCN3CCCC3)cc2)nc1Nc1ccc(Cl)c(C(F)(F)F)c1` [N2-(4-(2-(pyrrolidin-1-yl)ethoxy)phenyl)-N4-(4-chloro-3-(trifluoromethyl)phenyl)-5-methylpyrimidine-2,4-diamine]: the IC50 was 23.4 nM.

Turning to `Cc1cc(Nc2nc(Nc3ccc(OCCN4CCCC4)cc3)ncc2C)ccc1Cl` [N2-(4-(2-(pyrrolidin-1-yl)ethoxy)phenyl)-N4-(4-chloro-3-methylphenyl)-5-methylpyrimidine-2,4-diamine Hydrochloride], the concentration for half-maximal inhibition (IC50) turned out to be 12.4 nM.

Consider `Cc1cnc(Nc2ccc(OCCN3CCCC3)cc2)nc1Nc1ccc(Cl)c2[nH]ccc12` [N2-(4-(2-(pyrrolidin-1-yl)ethoxy)phenyl)-N4-(7-chloro-1H-indol-4-yl)-5-methylpyrimidine-2,4-diamine Hydrochloride], for which the half-maximal inhibitory concentration (IC50) amounted to 1.16 nM.

`Cc1cnc(Nc2ccc(OCCN3CCCC3)cc2)nc1Nc1ccc(F)c2[nH]ccc12` [N2-(4-(2-(pyrrolidin-1-yl)ethoxy)phenyl)-N4-(7-fluoro-1H-indol-4-yl)-5-methylpyrimidine-2,4-diamine Hydrochloride]: the IC50 was found to be 9.28 nM.

On to `Cc1cnc(Nc2ccc(OCCN3CCCC3)cc2)nc1Nc1nccc2ccccc12` [N2-(4-(2-(pyrrolidin-1-yl)ethoxy)phenyl)-N4-(isoquinolin-1-yl)-5-methylpyrimidine-2,4-diamine], for which the IC50 amounted to 1050 nM.

In the case of `Cc1cnc(Nc2ccc(CN3CCOCC3)cc2)nc1Nc1cccc2[nH]ccc12` [N4-(1H-Indol-4-yl)-5-methyl-N2-(4-morpholin-4-ylmethyl-phenyl)-pyrimidine-2,4-diamine], the concentration for half-maximal inhibition (IC50) amounted to 7.42 nM.

With `Cc1cnc(Nc2ccc(CN3CCNCC3)cc2)nc1Nc1cccc2[nH]ccc12` [N4-(1H-Indol-4-yl)-5-methyl-N2-(4-piperazin-1-ylmethyl-phenyl)-pynmidine-2,4-diamine], the IC50 is 10.1 nM.

Regarding `Cc1cnc(Nc2ccc(N3CCN(C)CC3)cc2)nc1Nc1cccc2[nH]ccc12` [N4-(1H-indol-4-yl)-5-methyl-N2-(4-(4-methylpiperazin-1-yl)phenyl)pyrimidine-2,4-diamine Hydrochloride], the IC50 came out at 9.53 nM.
